We go through five molecules from paper PMC4297217 (Therapeutic Drug Monitoring, 2015).

Structures are written as SMILES.

Series [1] is described as follows: Sertraline serum concentration-to-dose. The format is in vivo, patients. As to conditions: concomitant PPI vs control group without PPI.
For series [2] the following is noted: with omeprazole, cited from earlier work.
Series [3] in a line: Citalopram serum concentration-to-dose.
Series [4] in a line: Escitalopram serum concentration-to-dose. As to conditions: patients aged 80 years; combined linear and square age model.

On to `COc1ccc2[nH]c([S+]([O-])Cc3ncc(C)c(OC)c3C)nc2c1` (stereo not drawn) [Omeprazole, omeprazole], for which, in series [1], the “Expected Sertraline C/D Ratio Percent Change” value is on record as “no significant differences”. Moreover, in series [2] (9 healthy subjects), the “increase in the concentration of R-citalopram” value was 25% and the “increase in the concentration of S-citalopram” value was ~2 fold. The “mean increase in the plasma concentration of escitalopram” value in series [2] (healthy volunteers) was ~100%.

As to `Cc1c(OCC(F)(F)F)ccnc1C[S+]([O-])c1nc2ccccc2[nH]1` (stereo not drawn) [Lansoprazole, lansoprazole], the “Expected Sertraline C/D Ratio Percent Change” value in series [1] was “no significant differences”.

Take `CN(C)CCCC1(c2ccc(F)cc2)OCc2cc(C#N)ccc21` (stereo not drawn) [Citalopram, citalopram]: in series [3] (patients aged 80 years, combined linear and square age model), the “Citalopram C/D ratio, age effect” value is recorded as “roughly doubled”.

Consider `COc1ccnc(C[S+]([O-])c2nc3ccc(OC(F)F)cc3[nH]2)c1OC` (stereo not drawn) [Pantoprazole, pantoprazole], for which the “Expected Sertraline C/D Ratio Percent Change” value in series [1] was “no significant differences”. In addition, in series [3] (concomitant PPI vs control group without PPI), the “Expected Citalopram C/D Ratio Percent Change” value was “No significant effect”.

Take `CN(C)CCC[C@@]1(c2ccc(F)cc2)OCc2cc(C#N)ccc21` [Escitalopram, escitalopram]: in series [4], the “Escitalopram C/D ratio, age effect” value is listed as “roughly doubled”.
